In brackets after ≈: the same amount, converted by molar mass.

The subject of data set [1] is enterovirus EV71 (BrCr strain). Kind of data set: Activity screening for anti-enterovirus EV71: inhibition of cytopathic effect in Vero cells. The class given is cell-based. Particulars: for IC50: 100TCID50, Vero cells, CPE read when virus control reaches 4+, read-out: IC50 (half inhibitory concentration for enterovirus EV71); for SI (Selectivity Index = TC50/IC50): Vero cells. As to the method: Test item: Activity screening of the compounds for anti-enterovirus EV71
Test principle: Vero cells are used as viral host. The inhibition of the compound of the invention on the degree of cytopathic effect of Vero cells caused by enterovirus virus EV71 is determined.
1. Virus strain: enterovirus EV71 (BrCr, American Type Culture Collection, ATCC)
(§1) 2. Sample treatment: the compounds of the present invention are dissolved in DMSO or diluent to prepare stock solution which is stored at −20° C. The stock solution is formulated to suitable incipient concentration with culture solution immediately before use, and then 3-fold diluted with the culture solution, 8 degrees of dilution each.
3. Positive control drug: Pirodavir (LGM Pharma), which is a broad-spectrum anti-viral inhibitor.
(§2) 4. Test Method: Vero cells are seeded into a 96-well culture plate, at 5% CO2, and cultured at 37° C. for 16 hours. The Vero cells are added with different dilutions of drugs, and the degree of cytopathic effect (CPE) in each group is observed. The half toxic concentration (TC50) of each sample for Vero cells is calculated. Vero cells are added with 100TCID50 enterovirus EV71 respectively, and the virus solution is discarded after adsorption at 37° C. for 1 hour, and then drugs with various degrees of dilution are added respectively. Virus control and cell control are set and incubated at 37° C. The degree of cytopathic effect (CPE) in each group is observed when the degree of cytopathic effect (CPE) of virus control group reaches 4+. The half inhibitory concentration (IC50) of each sample for enterovirus EV71 are calculated. Selectivity Index (SI) is calculated according to the following equation: SI=TC50/IC50.
(Cytopathic effects are the visible damage that an infection or toxin causes in cultured cells.)

The test system of a further data set is Vero cells. Kind of data set: Cytotoxicity of the compounds for Vero cells (CPE observation, TC50). It counts as cell-based. As to conditions: no virus. As to the method: as §1, §2

Usually melting point stands for the temperature, or range, at which the solid turns liquid. With `O=C(Nc1nc2ccccc2s1)c1ccc(N(Cc2ccc(F)cc2)C(=O)[C@H]2O[C@@H]2C(=O)Nc2ccc(Cl)cc2Cl)cc1` [Compound 26, (2S,3S)—N^2-(4-(benzo[d]thiazol-2-ylcarbamoyl)phenyl)-N^3-(2,4-dichlorophenyl)-N^2-(4-fluorobenzyl)-2,3-epoxybutanediamide], the melting point lay in the range of 206.7 to 207.5 °C. Also, in data set [1], the IC50 is above 0.82 µg/mL. In addition, the “TC50 (half toxic concentration for Vero cells)” value with Vero cells came to 1.43 µg/mL.
As for `O=C(Nc1ccc(Cl)cc1)[C@H]1O[C@@H]1C(=O)N(Cc1ccccc1)c1ccccc1` [Compound 12, (2S,3S)—N^2-benzyl-N^2-phenyl-N^3-(4-chlorophenyl)-2,3-epoxybutanediamide], the melting point was in the range of 175.2 to 175.8 °C. Also, in data set [1], the IC50 worked out at 0.23 µg/mL (≈ 0.565 µM) and the “SI (Selectivity Index = TC50/IC50)” value is reported as 46.43. Besides, in the data set with Vero cells, the “TC50 (half toxic concentration for Vero cells)” value is 10.68 µg/mL.
`O=C(Nc1ccc([N+](=O)[O-])cc1)[C@H]1O[C@@H]1C(=O)N(Cc1ccccc1)c1ccccc1` [Compound 9, (2S,3S)—N^2-benzyl-N^2-phenyl-N^3-(4-nitrophenyl)-2,3-epoxybutanediamide]: the melting point fell in the range of 160.2 to 161.3 °C. In data set [1], the IC50 is 0.82 µg/mL (≈ 1.96 µM) and the “SI (Selectivity Index = TC50/IC50)” value came out at 5.22. In addition, the “TC50 (half toxic concentration for Vero cells)” value in the data set on Vero cells is 4.28 µg/mL.
In the case of `O=C(Nc1nc2ccccc2s1)c1ccc(N(Cc2ccc(F)cc2)C(=O)[C@H]2O[C@@H]2C(=O)Nc2cccc(Cl)c2Cl)cc1` [Compound 25, (2S,3S)—N^2-(4-(benzo[d]thiazol-2-ylcarbamoyl)phenyl)-N^3-(2,3-dichlorophenyl)-N^2-(4-fluorobenzyl)-2,3-epoxybutanediamide], the melting point was in the range of 210.2 to 211.1 °C. In addition, the IC50 in data set [1] was above 0.27 µg/mL. In addition, the “TC50 (half toxic concentration for Vero cells)” value in the data set with Vero cells was 0.82 µg/mL.
`O=C(Nc1nc2ccccc2s1)c1ccc(N(Cc2ccc(F)cc2)C(=O)[C@H]2O[C@@H]2C(=O)O)cc1` [Compound 16, (2S,3S)-3-((4-(benzo[d]thiazol-2-ylcarbamoyl)phenyl)(4-fluorobenzyl)carbamoyl)oxirane-2-carboxylic acid] came in with a melting point of 200.6 to 201.3 °C. The IC50 in data set [1] was above 2.47 µg/mL. Further, in the data set with Vero cells, the “TC50 (half toxic concentration for Vero cells)” value stood at 17.25 µg/mL.
Regarding `O=C(Nc1cccc(Cl)c1Cl)[C@H]1O[C@@H]1C(=O)N(Cc1ccccc1)c1ccccc1` [Compound 10, (2S,3S)—N^2-benzyl-N^2-phenyl-N^3-(2,3-dichlorophenyl)-2,3-epoxybutanediamide], the melting point lay within 115.7 to 115.8 °C. Also, in data set [1], the IC50 turned out to be 0.15 µg/mL (≈ 0.34 µM) and the “SI (Selectivity Index = TC50/IC50)” value amounted to 9.53. In the data set on Vero cells, the “TC50 (half toxic concentration for Vero cells)” value came to 1.43 µg/mL.
Compound `COC(=O)c1csc(NC(=O)[C@H]2O[C@@H]2C(=O)N(Cc2ccc(F)cc2)c2ccc(C(=O)Nc3nc4ccccc4s3)cc2)n1` [Compound 34, (2S,3S)—N^2-(4-(benzo[d]thiazol-2-ylcarbamoyl)phenyl)-N^2-(4-fluorobenzyl)-N^3-(4-methoxycarbonylthiazol-2-yl)-2,3-epoxybutanediamide] showed a melting point of 196.3 to 197.1 °C. For the same compound, in data set [1], the IC50 was above 0.82 µg/mL. Also, the “TC50 (half toxic concentration for Vero cells)” value in the data set on Vero cells came to 1.43 µg/mL.
As to `COc1cccc(NC(=O)[C@H]2O[C@@H]2C(=O)N(Cc2ccccc2)c2ccccc2)c1` [Compound 7, (2S,3S)—N^2-benzyl-N^2-phenyl-N^3-(3-methoxyphenyl)-2,3-epoxybutanediamide], the melting point fell in the range of 130.7 to 131.7 °C. In addition, in data set [1], the IC50 was found to be 0.27 µg/mL (≈ 0.671 µM) and the “SI (Selectivity Index = TC50/IC50)” value is 15.85. Further, the “TC50 (half toxic concentration for Vero cells)” value with Vero cells is 4.28 µg/mL.
For `O=C(Nc1ccc(Cl)c(Cl)c1)[C@H]1O[C@@H]1C(=O)N(Cc1ccccc1)c1ccccc1` [Compound 3, (2S,3S)—N^2-benzyl-N^2-phenyl-N^3-(3,4-dichlorophenyl)-2,3-epoxybutanediamide], the melting point fell in the range of 174.5 to 175.7 °C. Besides, in data set [1], the IC50 worked out at 2.47 µg/mL (≈ 5.6 µM) and the “SI (Selectivity Index = TC50/IC50)” value is reported as 2.08. In addition, the “TC50 (half toxic concentration for Vero cells)” value with Vero cells is 5.14 µg/mL.
`COc1ccccc1NC(=O)[C@H]1O[C@@H]1C(=O)N(Cc1ccc(F)cc1)c1ccc(C(=O)Nc2nc3ccccc3s2)cc1` [Compound 37, (2S,3S)—N^2-(4-(benzo[d]thiazol-2-ylcarbamoyl)phenyl)-N^3-(2-methoxyphenyl)-N^2-(4-fluorobenzyl)-2,3-epoxybutanediamide] yielded a melting point of 189.2 to 190 °C. The IC50 in data set [1] was above 0.27 µg/mL. Also, in the data set with Vero cells, the “TC50 (half toxic concentration for Vero cells)” value worked out at 0.82 µg/mL.
`O=C(Nc1nc2ccccc2s1)c1ccc(N(Cc2ccc(F)cc2)C(=O)[C@H]2O[C@@H]2C(=O)Nc2ccccc2Br)cc1` [Compound 27, (2S,3S)—N^2-(4-(benzo[d]thiazol-2-ylcarbamoyl)phenyl)-N^3-(2-bromophenyl)-N^2-(4-fluorobenzyl)-2,3-epoxybutanediamide] displayed a melting point of 179.2 to 180.1 °C. Further, the IC50 in data set [1] is above 0.27 µg/mL. Further, the “TC50 (half toxic concentration for Vero cells)” value in the data set on Vero cells came to 0.82 µg/mL.
`O=C(Nc1nc2ccccc2s1)c1ccc(N(Cc2ccc(F)cc2)C(=O)[C@H]2O[C@@H]2C(=O)Nc2ccc(F)c(F)c2)cc1` [Compound 22, (2S,3S)—N^2-(4-(benzo[d]thiazol-2-ylcarbamoyl)phenyl)-N^3-(3,4-difluorophenyl)-N^2-(4-fluorobenzyl)-2,3-epoxybutanediamide] returned a melting point of 219.2 to 219.7 °C. For the same compound, the IC50 in data set [1] was above 0.27 µg/mL. In the data set on Vero cells, the “TC50 (half toxic concentration for Vero cells)” value amounted to 1.19 µg/mL.
`COc1ccc(NC(=O)[C@H]2O[C@@H]2C(=O)N(Cc2ccc(F)cc2)c2ccc(C(=O)Nc3nc4ccccc4s3)cc2)cc1` [Compound 20, (2S,3S)—N^2-(4-(benzo[d]thiazol-2-ylcarbamoyl)phenyl)-N^3-(4-methoxyphenyl)-N^2-(4-fluorobenzyl)-2,3-epoxybutanediamide] yielded a melting point of 200.1 to 201.2 °C. Besides, the IC50 in data set [1] is above 2.47 µg/mL. For the same compound, the “TC50 (half toxic concentration for Vero cells)” value in the data set on Vero cells amounted to 13.74 µg/mL.
For `CCOC(=O)c1cnc(NC(=O)[C@H]2O[C@@H]2C(=O)N(Cc2ccc(F)cc2)c2ccc(C(=O)Nc3nc4ccccc4s3)cc2)s1` [Compound 35, (2S,3S)—N^2-(4-(benzo[d]thiazol-2-ylcarbamoyl)phenyl)-N^2-(4-fluorobenzyl)-N^3-(5-ethoxycarbonylthiazol-2-yl)-2,3-epoxybutanediamide], the melting point is 218.6 to 219.2 °C. The IC50 in data set [1] is above 2.47 µg/mL. Also, the “TC50 (half toxic concentration for Vero cells)” value in the data set with Vero cells turned out to be 4.28 µg/mL.
For `COC(=O)c1csc(NC(=O)[C@H]2O[C@@H]2C(=O)N(Cc2ccccc2)c2ccc(C(=O)Nc3nc4ccccc4s3)cc2)n1` [Compound 41, (2S,3S)—N^2-(4-(benzo[d]thiazol-2-ylcarbamoyl)phenyl)-N^2-benzyl-N^3-(4-methoxycarbonylthiazol-2-yl)-2,3-epoxybutanediamide], the melting point fell in the range of 223.5 to 224.3 °C. Further, the IC50 in data set [1] is above 0.82 µg/mL. For the same compound, the “TC50 (half toxic concentration for Vero cells)” value with Vero cells turned out to be 1.43 µg/mL.

(Values after US9630957B2, “2,3-butanediamide epoxide compound and preparation method and use thereof” (Institute of Pharmacology and Toxicology Academy of …, priority 2014, dated 2017).)
